Experiments:
[1] = target: T1, KRAS G12C 1-169, his-tagged protein, GDP-loaded (Homo sapiens, UniProt P01116, G12C); test: Biochemical assay: covalent modification of KRAS G12C measured by mass spectrometry (RapidFire/TOF or Q-Exactive); settings: covalent binding to KRAS G12C; compounds of structure (III)
T1 construct: KRAS G12C 1-169, his-tagged protein, GDP-loaded
Method in brief: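 Covalent adduct formation read by intact-mass spectrometry (TOF or Q Exactive Plus, charge envelopes deconvoluted into modified and unmodified species) after formic acid quench. Reactions contained 2 μM GDP-bound KRAS G12C 1-169 (his-tag) in Hepes/NaCl/MgCl2 buffer plus 10, 30 or 100 μM final compound, held 30 min, 2 h or 24 h at room temperature.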

Whole blood stability = format: in vitro ADME; settings: 37° C., time points 0, 1, 2, 4 hr, LC/MS/MS; for half-life at 5 µM: mouse, whole blood, read-out: Whole Blood Stability (T1/2) hr. Mouse (converted)
Protocol: Test compounds were prepared as a 500 μM stock solution in DMSO (Adding 10 μl of 10 mM DMSO stock solution to 190 μl of 100% DMSO). Whole blood was thawed on ice. A whole blood plate was prepared by adding 460 μl of the whole blood (different species as needed) to a 96-well in ml deep well plate. The whole blood plate was preincubated at 37° C. for 10 min. 4 μl of compound solution and 396 μl of whole blood was added to the plate and mixed thoroughly. Each sample was aliquoted (30 μl) to the incubation plate (cluster tubes) and quenched at time zero with ice-cold 100% ACN, and the incubation plates were added to the 37° C. incubator (200 μl).
The time zero sample was maintained at 4° C. until centrifuged. All other samples were quench at different time points (1, 2, 4 hr), vortexed for 30 seconds and centrifuged at 3500 rpm for 15 min at 4° C. 30 μl of supernatant was added to 170 μl 0.1% FA aqueous solution and the sample was analyzes by LC/MS/MS.

In the case of `C=CC(=O)N1[C@H](C)CN(c2ncnc3c(F)c(-c4c(O)cccc4F)c(Cl)cc23)C[C@@H]1C` (atropisomer, axis not shown) [III-29, 1-((2S,6R)-4-((R)-6-chloro-8-fluoro-7-(2-fluoro-6-hydroxy-phenyl)quinazolin-4-yl)-2,6-dimethyl-piperazin-1-yl)prop-2-en-1-one], the Binding % [1] is reported as “+ (+ indicates binding activity up to 50%)” and the half-life at 5 µM (Whole blood stability) is reported as 10.9 h.

In the case of `C=CC(=O)N1CCN(c2ncnc3c(F)c(-c4c(O)cccc4F)c(Cl)cc23)[C@@H](C)C1` (atropisomer, axis not shown) [III-23, 1-((S)-4-((R)-6-chloro-8-fluoro-7-(2-fluoro-6-hydroxy-phenyl)quinazolin-4-yl)-3-methyl-piperazin-1-yl)prop-2-en-1-one], the Binding % [1] is reported as “+ (+ indicates binding activity up to 50%)” and the half-life at 5 µM (Whole blood stability) is reported as > 12 h.

In the case of `C=CC(=O)N1[C@H](C)CN(c2ncnc3c(F)c(-c4c(O)cccc4F)c(Cl)cc23)C[C@H]1C` [III-22, 1-((2R,6R)-4-(6-chloro-8-fluoro-7-(2-fluoro-6-hydroxy-phenyl)quinazolin-4-yl)-2,6-dimethyl-piperazin-1-yl)prop-2-en-1-one], the Binding % [1] is reported as “+ (+ indicates binding activity up to 50%)” and the half-life at 5 µM (Whole blood stability) is reported as > 12 h.

For `C=CC(=O)N1CCN(c2ncnc3c(F)c(-c4c(O)cccc4F)c(Cl)cc23)[C@@H](C)C1` (atropisomer, axis not shown) [III-24, 1-((S)-4-((S)-6-chloro-8-fluoro-7-(2-fluoro-6-hydroxy-phenyl)quinazolin-4-yl)-3-methyl-piperazin-1-yl)prop-2-en-1-one], the Binding % [1] was “+++ (+++ indicates binding activity greater than 90%)” and the “Whole Blood Stability (T1/2) hr. Mouse” value (Whole blood stability) was 10.4 h.

In the case of `C=CC(=O)N1[C@H](C)CN(c2ncnc3c(F)c(-c4c(O)cccc4F)c(Cl)cc23)C[C@@H]1C` [III-15, 1-((2S,6R)-4-(6-chloro-8-fluoro-7-(2-fluoro-6-hydroxy-phenyl)quinazolin-4-yl)-2,6-dimethyl-piperazin-1-yl)prop-2-en-1-one], the Binding % [1] is reported as “++ (++ indicates activity from 50% to 90%)” and the “Whole Blood Stability (T1/2) hr. Mouse” value (Whole blood stability) is reported as 11.1 h.

In the case of `C=CC(=O)N1CCN(c2ncnc3c(F)c(-c4c(O)cccc4F)c(Cl)cc23)C(C)(C)C1` [III-17, 1-(4-(6-chloro-8-fluoro-7-(2-fluoro-6-hydroxy-phenyl)quinazolin-4-yl)-3,3-dimethyl-piperazin-1-yl)prop-2-en-1-one], the Binding % [1] is reported as “++ (++ indicates activity from 50% to 90%)” and the half-life at 5 µM (Whole blood stability) is reported as 12.5 h.

In the case of `C=CC(=O)N1CCN(c2ncnc3c(F)c(-c4c(O)cccc4F)c(Cl)cc23)C[C@H]1C` [III-21, 1-((2R)-4-(6-chloro-8-fluoro-7-(2-fluoro-6-hydroxy-phenyl)quinazolin-4-yl)-2-methyl-piperazin-1-yl)prop-2-en-1-one], the Binding % [1] is reported as “++ (++ indicates activity from 50% to 90%)” and the half-life at 5 µM (Whole blood stability) is reported as > 12 h.

For `C=CC(=O)N1C[C@H](C)N(c2ncnc3c(F)c(-c4c(O)cccc4F)c(Cl)cc23)[C@@H](C)C1` [III-37, 1-((3S,5S)-4-(6-chloro-8-fluoro-7-(2-fluoro-6-hydroxy-phenyl)quinazolin-4-yl)-3,5-dimethyl-piperazin-1-yl)prop-2-en-1-one], the Binding % [1] was “++ (++ indicates activity from 50% to 90%)” and the half-life at 5 µM (Whole blood stability) was 9.9 h.

For `C=CC(=O)N1[C@@H](C)CN(c2ncnc3c(F)c(-c4c(O)cccc4F)c(Cl)cc23)C[C@@H]1C` [III-18, 1-((2S,6S)-4-(6-chloro-8-fluoro-7-(2-fluoro-6-hydroxy-phenyl)quinazolin-4-yl)-2,6-dimethyl-piperazin-1-yl)prop-2-en-1-one], the Binding % [1] was “+ (+ indicates binding activity up to 50%)” and the half-life at 5 µM (Whole blood stability) was 8.8 h.

For `C=CC(=O)N1CCN(c2ncnc3c(F)c(-c4c(O)cccc4F)c(Cl)cc23)[C@@H](C)C1` [III-14, 1-((3S)-4-(6-chloro-8-fluoro-7-(2-fluoro-6-hydroxy-phenyl)quinazolin-4-yl)-3-methyl-piperazin-1-yl)prop-2-en-1-one], the Binding % [1] was “++ (++ indicates activity from 50% to 90%)” and the “Whole Blood Stability (T1/2) hr. Mouse” value (Whole blood stability) was 6.2 h.

With `C=CC(=O)N1CCN(c2ncnc3c(F)c(-c4c(O)cccc4F)c(Cl)cc23)C[C@@H]1C` [III-20, 1-((2S)-4-(6-chloro-8-fluoro-7-(2-fluoro-6-hydroxy-phenyl)quinazolin-4-yl)-2-methyl-piperazin-1-yl)prop-2-en-1-one] the Binding % [1] was “++ (++ indicates activity from 50% to 90%)” and the half-life at 5 µM (Whole blood stability) was 10.6 h.

Work on `C=CC(=O)N1CCN(c2ncnc3c(F)c(-c4c(O)cccc4F)c(Cl)cc23)CC1` (atropisomer, axis not shown) [A, reference compound] yielded a half-life at 5 µM (Whole blood stability) of 3.99 h.

— patent US10829458B2 (Araxes Pharma LLC, priority 2015, dated 2020)
